In patent US11207461B2, “Drug delivery system and method for controlled and continuous delivery of drugs into the brain by bypassing the blood brain barrier” (priority 2015, dated 2021):

What was measured:
[1] = rabbit
Excerpt: The device was surgically placed in a rabbit in the maxillary sinus region by removing the bone overlying the respiratory mucosa. The tip of the device was placed beneath the maxillary sinus lining mucosa in contact with the connective tissue side of the mucosa. […] FIG. 15 refers to the comparative brain values of dopamine using High Performance Liquid Chromatography, between the control and the rabbit in which dopamine was delivered in vivo in a continuous and controlled manner under the maxillary sinus mucosa using the drug delivery system. […] The drug delivery was stopped at the twentieth minute. […] FIG. 16 refers to blood values of dopamine in the rabbit after in vivo delivery of dopamine under the maxillary sinus mucosa using the device.

[2] = rabbit; blood samples before and at 10, 20 and 30 minutes after start of drug delivery; FIG. 18
Description: The device was placed into the maxillary sinus of a rabbit by perforating the maxillary sinus mucosa from the connective tissue side and placing the implant tip into the sinus cavity and above the epithelial layer. […] Whole body perfusion was done using a peristaltic pump with warm physiological saline for 20 minutes at a controlled rate. The perfused brain was then resected at the end one hour from the start of the procedure. Brain samples from different parts of the brain was analyzed using High Performance Liquid Chromatography. […] During the procedure, a blood sample was collected before drug delivery. Three blood samples were then collected at intervals of 10, 20 and 30 minutes respectively following start of drug delivery. The samples were analyzed using High Performance Liquid Chromatography.

| SMILES | blood value of dopamine (HPLC) after drug delivery was stopped ([1]; blood sample at 30 minutes, delivery stopped at the twentieth minute, FIG. 16) | blood values of dopamine (HPLC) during drug delivery ([1]; blood samples at 10 and 20 minutes after start of drug delivery, versus sample before delivery, FIG. 16) | drug in peripheral circulation during drug delivery ([1]; dopamine infused under maxillary sinus mucosa, during the 20 minute delivery) | brain concentration of dopamine (HPLC) compared with the normal ([1]; infused under maxillary sinus mucosa for twenty minutes at 1 milliliter per hour, perfused brain resected at one hour, samples from different parts of the brain, FIG. 15) | blood values of lignocaine (HPLC), drug in peripheral circulation [2] |
| --- | --- | --- | --- | --- | --- |
| NCCc1ccc(O)c(O)c1 [Dopamine] | peaked again | dipped | no increase of the drug in peripheral circulation | increased concentration of dopamine in all parts of the brain except diencephalon |  |
| CCN(CC)CC(=O)Nc1c(C)cccc1C [Lignocaine] |  |  |  |  | no drug in the peripheral circulation |
